Columns and labels:
[1] = Storage stability of fesoterodine base as oil and in polymer matrices; format: physicochemical; conditions: storage for 6 months at 5° C.
Procedure: While, for example, the free base of fesoterodine is decomposed as an oil after storage for 6 months at 5° C. to around 3-4%, a drop in concentration cannot be established or only established essentially to a lesser extent when fesoterodine is incorporated in matrices, which contain polar components. [table]

[2] = Stirring of fesoterodine base under distilled water, TLC of the aqueous phase; format: physicochemical; conditions: covered with distilled water, stirred two days at room temperature
Procedure: Fesoterodine (107.7 mg (R)-2-(3-Diisopropylamino-1-phenylpropyl)-4-hydroxymethylphenyl isobutyric acid ester, B) is covered with a layer distilled water and stirred at room temperature. After two days of stirring, the reaction batch remains unchanged two-phase.

Decomposition during storage as an oil [1]: 3-4%
SMILES: CC(C)C(=O)Oc1ccc(CO)cc1[C@H](CCN(C(C)C)C(C)C)c1ccccc1 [free base of fesoterodine, (R)-2-[3-(1,1-diisopropylamino)-1-phenylpropyl]-4-(hydroxymethyl)phenyl isobutyrate]
Organic material detectable in the aqueous phase by thin layer chromatography [2]: No organic material (B or E) could be detected

Source: patent publication US7989654B2, “High purity bases of 3,3-diphenylpropylamino monoesters” (UCB Pharma GmbH, priority 2003, dated 2011)
